Laboratory results from US4301163A, “Amino-ether oxides and use thereof in therapy” (priority 1979, dated 1981).

Tests used:
in vivo = details: mouse
Method: The acute toxicity of the products of the invention was determined on groups of 20 Swiss OF1 mice weighing 22 to 24 grams by intravenous route.

[1] = tested on: inflammation in the paw of the rat; assay: Analgesic activity, brewer's yeast paw inflammation pressure test (derived from Randall and Selito); type: in vivo, rat (male Sprague-Dawley); details: 100 mg/kg oral, 1 hour after administration
Method: The analgesic activity of the products was studied on male Sprague-Dawley rats in groups of 15 by a method derived from that of Randall and Selito (Arch. Int. Pharmacodyn. 1957 (III) page 409). This method consists in causing a painful inflammation in the paw of the rat by injecting 0.1 ml of a 20% brewer's yeast solution, then applying a pressure to the inflammation and determining the value of the pressure at which a painful reaction of the animal appears.
The activity of the products was studied after 1 hour of administration by oral route at the rate of one dose of 100 mg/kg in comparison with untreated animals. In this test aspirin was chosen as reference substance.
The analgesic effect of the products is expressed by the percentage increase of the pressure endured by the treated animals in relation to that endured by the untreated animals.
The results of the analgesic activity of the product tested are expressed in relation to the activity of aspirin administered by oral route at a dose of 100 mg/kg.

guinea-pig ileum = assay: Spasmolytic activity in vitro against nicotine, isolated guinea-pig ileum; details: for Spasmolytic activity compared with hexamethonium dibromide: nicotine 1 mg/l, relative EC50 comparison; for spasmolytic index/hexamethonium dibromide: relative index I from activity and relative toxicity, calculated in mmoles
Method: (§1) The spasmolytic activity of the products was studied in vitro with regard to two distinct agonists, namely:
(§2) The organ fragments were kept alive in a tank containing a solution of Tyrode (37° C., pH 7.2, oxygenated by the mixture O2 /CO2, 95%/5%).
(§3) The isotonic contractions were recorded graphically on a physiograph by means of a transducer. […] The values obtained are compared with those of spasmolytic agents selected as reference and are determined under the same experimental conditions, namely:
hexamethonium dibromide for the convulsant effect of nicotine (table V).

cornea of the rabbit = assay: Local anaesthetic activity on contact, rabbit cornea (derived from Regnier); type: in vivo, rabbit (male albino); details: for Local anaesthetic activity: effect compared with lidocaine: 1% solution, relative to lidocaine hydrochloride at identical concentration, rabbit cornea; for local anaesthesia/lidocaine hydrochloride index: relative index I from activity and relative toxicity, calculated in mmoles
Method: The local anaesthetic activity on contact is determined on the cornea of the rabbit according to a method derived from the technique of Regnier (Regnier J. R. Salle P. Bull. Soc. Pharmacol. 1926 33, 91).
Male albino rabbits weighing 2 to 3 kg are used in groups of 5. The product solution to be tested is injected in a volume of 0.2 ml into the conjunctival sac. The cornea is then stimulated by means of a hair 3, 6, 10, 15, 20, 25, 45 and 60 minutes after injection.
The local anaesthetic activity is thus expressed in relation to this reference product.

rat duodenum = assay: Spasmolytic activity in vitro against barium chloride, isolated rat duodenum; details: for Spasmolytic activity compared with papaverine hydrochloride / spasmolytic index/papaverine hydrochloride: rat duodenum; for Spasmolytic activity compared with papaverine hydrochloride: BaCl2 50 mg/l, relative EC50 comparison; for spasmolytic index/papaverine hydrochloride: relative index I from activity and relative toxicity, calculated in mmoles; for relative index of spasmolytic activity compared with papaverine: summary statement, times higher than the reference
Method: as §1, §2, §3
papaverine hydrochloride for the convulsant effect of barium chloride;

[2] = reference substances, mice, intravenous

Row | SMILES | LD50 at 192 h (in vivo; iv) [mg/kg] | Analgesic activity in relation to aspirin [1] | Spasmolytic activity compared with hexamethonium dibromide (guinea-pig ileum) | spasmolytic index/hexamethonium dibromide (guinea-pig ileum) | Local anaesthetic activity: effect compared with lidocaine (cornea of the rabbit) | local anaesthesia/lidocaine hydrochloride index (cornea of the rabbit) | Spasmolytic activity compared with papaverine hydrochloride (rat duodenum) | spasmolytic index/papaverine hydrochloride (rat duodenum) | relative index of spasmolytic activity compared with papaverine (rat duodenum) | LD50 at 192 h (in vivo; [2]) [mg/kg]
1 | CCC(COCc1ccc(C)cc1)(c1ccccc1)N(C)C (stereo not drawn) [Example 6] | 48.6 |  |  |  |  |  |  |  |  | 
2 | COc1ccc(CC(C)(COCc2ccccc2)N(C)C)cc1OC (stereo not drawn) [Example 18] | 27.3 |  |  |  |  |  |  |  |  | 
3 | CCC(CN(C)C)(OCc1cc(OC)c(OC)c(OC)c1)c1ccccc1 (stereo not drawn) [Example 11, 2-[(3,4,5-trimethoxy)benzyloxy]-2-phenyl-N,N-dimethyl-n-butylamine] | 46.7 | 2.3 | 2.6 | 5.76 | 1.0 | 1.49 | 1.9 | 2.69 |  | 
4 | COc1ccc(CC(C)(N)COCc2ccccc2)cc1OC (stereo not drawn) [Example 17, 1-Benzyloxymethyl-1-methyl-(3,4-dimethoxy)-phenethyl-amine] | 51.6 |  |  |  |  |  |  |  |  | 
5 | CCC(COCc1ccc(OC)c(OC)c1)(c1ccccc1)N(C)C (stereo not drawn) [Example 1, 1-[(3,4-dimethoxy)benzyloxymethyl]-1-phenyl-N,N-dimethyl-n-propylamine] | 30 | 1 | 0.9 | 1.29 | 1.6 | 1.52 | 2.7 | 2.45 |  | 
6 | CCCCCCCCCCOCC(CC)(c1ccccc1)N(C)C (stereo not drawn) [Example 5] | 37 | 2.5 | 2.2 | 3.85 |  |  | 0.5 | 0.56 |  | 
7 | CCC(COCc1cc(OC)c(OC)c(OC)c1)(c1ccccc1)N(C)C (stereo not drawn) [Example 2, 1-[(3,4,5-trimethoxy)benzyloxymethyl]-1-phenyl-N,N-dimethyl-n-propylamine] | 42 |  | 1.2 | 2.42 | 2.2 | 2.95 | 5.4 | 6.90 | up to seven | 
8 | COc1ccc(CCC(C)(COCc2cc(OC)c(OC)c(OC)c2)N(C)C)cc1OC (stereo not drawn) [Example 19] | 30.7 |  |  |  | 0.95 | 0.92 |  |  |  | 
9 | CCC(COCc1cc(OC)c(OC)c(OC)c1)(NC)c1ccccc1 (stereo not drawn) [Example 12, 1-[(3,4,5-trimethoxy)benzyloxymethyl]-1-phenyl-N-methyl-n-propylamine] | 34 |  | 2.3 | 4.09 | 1.7 | 1.84 | 1.2 | 1.24 |  | 
10 | CC(=O)Oc1ccccc1C(=O)O [aspirin, reference compound] |  | 1 |  |  |  |  |  |  |  | 
11 | Cc1ccc(COCC(C)(c2ccc(Cl)c(Cl)c2)N(C)C)cc1 (stereo not drawn) [Example 15] | 160 |  |  |  |  |  |  |  |  | 
12 | COc1ccc(Cc2nccc3cc(OC)c(OC)cc23)cc1OC [papaverine, reference compound] |  |  |  |  |  |  |  |  |  | 33.1
13 | C[N+](C)(C)CCCCCC[N+](C)(C)C [hexamethonium, reference compound] |  |  |  |  |  |  |  |  |  | 21
14 | COc1ccc(C(C)(COCc2ccc(Cl)cc2)N(C)C)cc1 (stereo not drawn) [Example 13] | 48.4 |  |  |  | 1.1 | 1.71 |  |  |  | 
15 | CCC(COc1ccc(OC)cc1)(c1ccccc1)N(C)C (stereo not drawn) [Example 21, 1-[(4-methoxy)phenoxymethyl]-1-phenyl-N,N-dimethyl-n-propylamine] | 140 |  | 1.7 | 11.33 | 0.45 | 2.00 | 1.7 | 7.28 | up to seven | 
16 | CCC(COc1ccccn1)(c1ccccc1)N(C)C (stereo not drawn) [Example 7] | 37 |  | 1.0 | 1.75 | 1.1 | 1.30 | 1.7 | 1.89 |  | 
17 | CCC(CN(C)C)(Oc1ccc(OC)cc1)c1ccccc1 (stereo not drawn) [Example 22, 2-[(4-methoxy)phenoxy]-2-phenyl-N,N-dimethyl-n-butylamine] | 59.6 |  |  |  |  |  |  |  |  | 
18 | CCCCOCC(CC)(c1ccccc1)N(C)C (stereo not drawn) [Example 4] | 26.8 |  |  |  |  |  |  |  |  | 
19 | CCC(COCc1ccccn1)(c1ccccc1)N(C)C (stereo not drawn) [Example 9] | 39 |  | 1.4 | 2.62 | 0.7 | 0.875 | 0.4 | 0.475 |  | 
20 | CCC(COCc1cccnc1)(c1ccccc1)N(C)C (stereo not drawn) [Example 10] | 43 | 1.8 | 1.7 | 3.50 |  |  | 0.4 | 0.525 |  | 
21 | CCC(COCc1ccccc1)(c1ccccc1)N(C)C (stereo not drawn) [Example 3, 1-Benzyloxymethyl-1-phenyl-N,N-dimethyl-n-propylamine] | 41.4 |  | 3.4 | 6.69 | 1.4 | 1.85 | 0.9 | 1.125 |  | 
